# Patent US20090060871A1, “ADMINISTRATION OF AGONIST-ANTAGONIST IN OPIOID-DEPENDENT PATIENTS” (priority 2006, published 2009)
# Counter-ions that a name gives are not always drawn.
# Legend:
# [1] = in vivo; cited from earlier work
# [2] = water; cited from earlier work
# [3] = system: IDU (injectable drug users); experiment: Pilot study of Nalbuphine administration to IDU (injectable drug users), Example 8A; assay type: in vivo, human
# Source text: A pilot study was initiated to evaluate treatment with Nalbuphine (agonist-antagonist) in the context of HIV prevention, treatment and care interventions. The first pilot study of the effects of Nalbuphine administration to IDU (injectable drug users) started at the 8th of August 2006 in Moscow. It is still being conducted on outpatient basis.
# Duration of individual treatment varied from patient to patient (from 10 days to 180 days) depending on patient's condition, life-style, substance abuse history, etc. The frequency of administration varied from 20 mg per patient bid (initially) to 20 mg per patient per week (after 30 days).
# The objective of the study is to compare this method with the other methods of drug treatment typical for Russia, and to measure the effects of out-patient Nalbuphine administration using following criteria:
# The clinical trial included 19 clients, all with simultaneous codeine addiction, 7 patients living with AIDS, 4 being multiple substance users. In all cases, the patient was a difficult case (5-11 years of heroin abuse). 3 of the patients had very high (3-5 g a day) doses of heroin abuse.
# All patients were between 18-50 years old, diagnosed with opiate abuse (in some cases in combination with other substances). They were admitted to the study after three days of opiate abstinence.
# Patients with psychiatric, oncological, diabetic conditions, chronic kidney illnesses, and pregnancy were excluded from the study.
# [4] = system: HIV-infected, opioid-dependent patient; experiment: Average adherence to ARV regimen during nalbuphine administration; assay type: in vivo, human
# Protocol: Compliance with a treatment regimen and in particular to an ARV regimen is determined using an “average adherence” value calculated using the formula: […]
# where A is the number of tablets or gel capsules required by the protocol to be administered to a patient over four weeks; and B is the number of tablets or gel capsules prescribed but actually not taken by a patient over the same period of time.
# [5] = system: opioid-dependent patient; experiment: Clinical case reports: nalbuphine 2 cc IM twice a day in opioid-dependent patients (Examples 1A-7A); assay type: in vivo, human
# [6] = system: opioid-dependent patients; experiment: Study of 28 patients who received Nalbuphine for up to 6 months, Example 9A; assay type: in vivo, human
# Source text: The results of a study of 28 patients who received Nalbuphine for up to 6 months are as follows.
# [7] = Example 1A, M., 2 cc IM twice a day for 48 days
# [8] = Example 3A, N., 2 cc IM twice a day for 30 days
structure (smiles),measurement,setting,value
"Oc1ccc2c3c1O[C@H]1[C@@H](O)CCC4(O)C(C2)N(CC2CCC2)CCC314 (stereo partly drawn) [nalbuphine hydrochloride, 17-(cyclobutylmethyl)-4,5α-epoxymorphinan-3,6α-14-triol hydrochloride]",plasma half life,[1],about five
same,solubility,[2],Water-soluble
"Oc1ccc2c3c1OC1[C@@H](O)CCC4(O)[C@@H](C2)N(CC2CCC2)CC[C@]314 (stereo partly drawn) [nalbuphine, 17-(cyclobutylmethyl)-4,5α-epoxymorphinane-3,6α-14-triol]",side effects or drug-drug interactions,[3]; 19 clients,No side effects or drug-drug interactions were observed
same,involvement/adherence to HIV treatments,[3]; all HIV-positive patients,higher involvement/adherence
same,quality of life,[3]; all patients,improved quality of life
same,patients who stopped heroin and codeine consumption,"[3]; of 19 clients, 20 mg bid initially to 20 mg per week, 10 to 180 days, outpatient",18 patients
same,Average adherence to ART during April,"[4]; Example 3A, N., 98% in January-March 2006 before nalbuphine",100%
same,Average adherence to ART during April,"[4]; Example 4A, S., male, Stocrin+Combivir, 76% in January-March 2006 before nalbuphine",97%
same,Average adherence to ART during April,"[4]; Example 5A, V., Stocrin and Combivir, 70% in January-March 2006 before nalbuphine",95%
same,Average adherence to ART during April,"[4]; Example 6A, L., Efavirenz and Combivir, 68% in January-March 2006 before nalbuphine",93%
same,Average adherence to ART during April,"[4]; Example 7A, S., female, 98% in January-March 2006 before nalbuphine",93%
same,aggravation of opportunistic infections or HCV,[5]; [7],No aggravation
same,craving,[5]; [7],profound decrease in craving
same,desire for drug use,"[5]; Example 2A, D., 2 cc IM twice a day for 52 days",denies desire for drug use
same,aggravation of opportunistic infections or HCV,"[5]; Example 3A, N.",No aggravation
same,cravings for drugs,[5]; [8],cravings for drugs decreased
same,pain (chronic osteomyelitis),[5]; [8],pain relief
same,aggravation of opportunistic infections or HCV,"[5]; Example 5A, V.",No aggravation
same,alcohol problems,"[5]; Example 5A, V.",problems with alcohol persist
same,aggravation of opportunistic infections or HCV,"[5]; Example 6A, L.",No aggravation
same,drug cravings,"[5]; Example 6A, L.",drug cravings decreased
same,attempts of suicide,"[5]; Example 6A, L., multiple earlier attempts",No attempts of suicide
same,correlation between administrated dose and heroin consumption,[6]; 28 patients,inverse correlation
same,"overdose, side effects or new infections associated with injectable drugs",[6]; 28 patients,"no observed instances of overdose, side effects or new infections"
same,quality of life,[6]; 28 patients,improved
same,people staying clean (periodic urine tests for opiates) while on therapy,"[6]; 28 patients, up to 6 months",two thirds
same,reduction of total heroin and other opiate consumption,"[6]; 28 patients, up to 6 months",up to 75%
same,cravings for drug,[6]; all patients,clear reduction of cravings for drug
same,compliance (adherence) to ARVT,[6]; patients already receiving ARVT,nearly perfect compliance (adherence)
